Assays:
[1] = tested on: mouse macrophage (J774A.1 cell line); assay: ATP level in J774A.1 cells by ATP luminometer (Trial A); assay type: cell-based
Description: To evaluate propanamide can increase of ATP synthesis, mouse macrophage (J774A.1 cell line) was used as the cell model. The J774A.1 cells without treatment were used as group A0. ATP level in the J774A.1 cells of groups A0-A5 were analyzed by ATP luminometer, respectively. The unit of ATP level is relative light unit (R.L.U).

[2] = tested on: obese rats; assay: Fasting serum insulin in high fat diet obese rats (Trial D); assay type: in vivo, Wistar male rats; conditions: 1 and 3 ppm propanamide in high fat diet for 4 weeks (groups D2 and D3), fasted 18 hours, 23rd week (FIG. 7)
Description: (§1) Wistar male rats were used as the animal model in Trial (D). […] The obese rats of group D1 were then fed by the high fat diet without propanamide for another 4 weeks (total 23 weeks), while the obese rats of group D2 and D3 were fed by the high fat diet respectively containing 1 ppm and 3 ppm propanamide for further 4 weeks, The normal rats of group D0 were fed by normal diet for 23 weeks (total 23 weeks). At the 22th week, the oral glucose tolerance tests (OGTT) were performed as following: the rats of groups D0-D3 were fasted for 18 hours, and then were administered a 20% glucose solution (2 g glucose/kg body weight) by gavage. Blood samples were collected and the glucose concentrations were detected at 0, 30, 60, 90, and 120 minutes after glucose loading. At 23th week, the rats of groups D0-D3 were fasted for 18 hours before scarification, and the serum were analyzed the level of insulin.

[3] = tested on: TNF-α; assay: TNF-α level in medium of J774A.1 cells with or without LPS (Trial B); assay type: cell-based, mouse
Description: The increase of cellular ATP can change the activity of macrophage, inhibiting the production of the proinflammatory cytokine, TNF-α, as well as the inflammation. After 15 minutes, 200 ng/ml lipopolysaccharide (LPS) was used to induce the inflammation in the J774A.1 cells of groups B1, B3 and B5. The medium of the J774A.1 cells was collected, and the TNF-α level in the medium was detected by a commercial kit.

[4] = tested on: obese rats; assay: Oral glucose tolerance test (OGTT) in high fat diet obese rats (Trial D); assay type: in vivo, Wistar male rats
Description: as §1, with “loading.” for “loading. At 23th week, the rats of groups D0-D3 were fasted for 18 hours before scarification, and the serum were analyzed the level of insulin.”

[5] = tested on: obese mice; assay: Fasting blood glucose in high fat diet obese mice (Trial C); assay type: in vivo, Male ICR mice; conditions: high fat diet containing 3 ppm propanamide for 2 weeks (group C2), fasted 18 hours (FIG. 5)
Text: Male ICR mice were used as the animal model in Trial (C). […] The obese mice of group C1 were then fed by the high fat diet for another 2 weeks, while the obese mice of group C2 were fed by the high fat diet containing 3 ppm propanamide for further 2 weeks. The normal mice of group C0 were fed by normal diet for 19 weeks. After 19 weeks, the mice of groups C0-C2 were sacrificed, and the effect of propanamide on reducing the accumulation of visceral fat was estimated by weight of epididymal fat (% of body weight). Before being sacrificed, the mice of groups C0-C2 were fasted for 18 hours, and the levels of fasting blood glucose of the mice were measured. Referring to FIG. 5, the levels of fasting blood glucose of the obese mice fed by the high fat diet (group C1) were higher than that of the normal mice fed by the normal diet (group C0).

In the case of `CCC(N)=O` [propanamide], the “dose dependence of ATP production” value ([1]; concentration below 4 μM, 6 hours (FIG. 2)) is reported as “dose-dependent response”, the “ATP level in the J774A.1 cells” value ([1]; propanamide 0.04-400 μM, 6 hours, vs untreated cells (FIG. 2)) is reported as “effectively elevate ATP level” and the fasting serum insulin [2] is reported as “reduced to normal level”. The “production of TNF-α not induced by LPS” value ([3]; propanamide 4 and 40 μM (groups B2 and B4), no LPS (FIG. 3)) was “also inhibit the production of TNF-α”, the “production of TNF-α induced by LPS” value ([3]; propanamide 4 and 40 μM (groups B3 and B5), 200 ng/ml LPS after 15 minutes (FIG. 3)) was “effectively inhibit the production of TNF-α induced by LPS” and the “area under curve (AUC) of blood glucose in OGTT” value ([4]; 1 and 3 ppm propanamide in high fat diet (groups D2 and D3) (FIG. 6b)) was “decreased significantly”. For the same compound, the “blood glucose during OGTT vs group D1” value ([4]; 1 ppm and 3 ppm propanamide in high fat diet (groups D2 and D3), 120 minutes after glucose loading (FIG. 6a)) was “significantly lower”, the “blood glucose in untreated obese rats (group D1) relative to group D2 during OGTT” value ([4]; 1 ppm propanamide in high fat diet (group D2), 90 minutes to 120 minutes after glucose loading (FIG. 6a)) was “evidently higher” and the “levels of fasting blood glucose” value [5] was “decreased significantly”.

— patent publication US10888536B1, “Method of improvement of insulin sensitivity in obese patients” (FOOYIN UNIVERSITY, priority 2019, dated 2021)
